In brackets after ≈: the same amount, converted by molar mass. Like-named read-outs stand apart in the source and are kept apart here.
Test system: Escherichia coli (E. coli) strain CFT073 ATCC 700928
Type: cell-based
Procedure: In vitro antimicrobial activity of each compound was determined by measuring minimal inhibitor concentrations (MICs) using the broth micro-dilution technique as approved by the Clinical and Laboratory Standards Institute (CLSI) (Methods for Dilution Antimicrobial Susceptibility Tests for Bacteria that Grow Aerobically; Approved Standard—Eighth Edition. CLSI document M07-A8. Wayne, Pa.: Clinical and Laboratroy Standards; 2009). Antibacterial activity was measure against Escherichia coli (E. coli) strain CFT073 ATCC 700928, which is a clinically relevant Gram-negative strain. Cells were inoculated onto plates of Mueller Hinton Agar and grown at 37° C. for 16-18 hours. Inocula suspensions were prepared by scraping cells into 1 mL of testing media (Mueller Hinton II cation adjusted Broth supplemented with 0.002% v/v Tween-80) and diluting to a final OD600 nm of 0.01.
Test compounds were prepared in DMSO at a concentration of 100 uM The compounds were tested under several different dilution formats and the data are reported in Tables 6, 7 and 8. In protocol 1, the compound stocks were diluted into testing media at a concentration of 64 μg/ml and serial 2-fold dilutions were made in the same media, in 96-well U bottom microtiter dishes, for a total of 10 compound concentrations. In protocol 2, the compound stocks were diluted into testing media at a concentration of 4 μg/mL and serial 2-fold dilutions were made in the same media, in 96-well U bottom microtiter dishes, for a total of 10 compound concentrations. In protocol 3, compound stocks were diluted into testing media at a concentration of 0.5 μg/mL, with serial 2-fold dilutions conducted as described above. In protocol 4, compound stocks were diluted into testing media at a concentration of 0.13 μg/mL, with serial 2-fold dilutions conducted as described above. Inocula suspensions were added to the 2-fold serial dilutions of test compounds to a final density of OD OD600 nm of 0.0005 and incubated at 35° C. for 22 hours.

MIC (ATCC 700928, 22 h)	Compound	MIC (E. coli CFT073 ATCC 700928, Mueller Hinton II cation adjusted Broth with 0.002% v/v Tween-80, 35° C. for 22 hours, lowest concentration that completely prevented bacterial growth)
50 µM (≈ 32.7 µg/mL)	CCCCCC[C@H]1OC(=O)CNC(=O)[C@H](CCO)NC(=O)[C@H](CN)NC(=O)[C@H]([C@H](C)CC)NC(=O)[C@H](CC(C)C)N(C)C(=O)[C@@H]1C [Example 13, (6S,9S,12S,15S,18R,19R)-9-(aminomethyl)-19-hexyl-6-(2-hydroxyethyl)-15-isobutyl-16,18-dimethyl-12-[(1R)-1-methylpropyl]-1-oxa-4,7,10,13,16-pentazacyclononadecane-2,5,8,11,14,17-hexone]	
50 µM (≈ 35.5 µg/mL)	CCCCCCCCCC[C@H]1OC(=O)CNC(=O)[C@H](CCN)NC(=O)[C@H](CO)NC(=O)[C@H]([C@@H](C)CC)NC(=O)[C@H](CC(C)C)N(C)C(=O)[C@@H]1C [Example 20, (6S,9S,12S,15S,18R,19R)-6-(2-aminoethyl)-19-decyl-9-(hydroxymethyl)-15-isobutyl-16,18-dimethyl-12-[(1S)-1-methylpropyl]-1-oxa-4,7,10,13,16-pentazacyclononadecane-2,5,8,11,14,17-hexone]	
25 µM (≈ 18.1 µg/mL)	CCCCCCCCCC[C@H]1OC(=O)CNC(=O)[C@H]([C@H](C)O)NC(=O)[C@H](CCN)NC(=O)[C@H]([C@@H](C)CC)NC(=O)[C@H](CC(C)C)N(C)C(=O)[C@@H]1C [Example 25, (6S,9S,12S,15S,18R,19R)-9-(2-aminoethyl)-19-decyl-6-[(1S)-1-hydroxyethyl]-15-isobutyl-16,18-dimethyl-12-[(1S)-1-methylpropyl]-1-oxa-4,7,10,13,16-pentazacyclononadecane-2,5,8,11,14,17-hexone]	
13 µM (≈ 9.26 µg/mL)	CCCCCCCCCC[C@H]1OC(=O)CNC(=O)[C@H](CCO)NC(=O)[C@H](CO)NC(=O)[C@H]([C@@H](C)CC)NC(=O)[C@H](CC(C)C)N(C)C(=O)[C@@H]1C [Example 27, (6S,9S,12S,15S,18R,19R)-19-decyl-6-(2-hydroxyethyl)-9-(hydroxymethyl)-15-isobutyl-16,18-dimethyl-12-[(1S)-1-methylpropyl]-1-oxa-4,7,10,13,16-pentazacyclononadecane-2,5,8,11,14,17-hexone]	
13 µM (≈ 8.86 µg/mL)	CCCCCCCCCC[C@H]1OC(=O)CNC(=O)[C@H](C)NC(=O)[C@H](CO)NC(=O)[C@H]([C@@H](C)CC)NC(=O)[C@H](CC(C)C)N(C)C(=O)[C@@H]1C [Example 30, (6S,9S,12S,15S,18R,19R)-19-decyl-9-(hydroxymethyl)-15-isobutyl-6,16,18-trimethyl-12-[(1S)-1-methylpropyl]-1-oxa-4,7,10,13,16-pentazacyclononadecane-2,5,8,11,14,17-hexone]	
13 µM (≈ 9.07 µg/mL)	CCCCCCCCCC[C@H]1OC(=O)CNC(=O)[C@H](CO)NC(=O)[C@H](CO)NC(=O)[C@H]([C@@H](C)CC)NC(=O)[C@H](CCCC)N(C)C(=O)[C@@H]1C [Example 31, (6S,9S,12S,15S,18R,19R)-15-butyl-19-decyl-6,9-bis(hydroxymethyl)-16,18-dimethyl-12-[(1S)-1-methylpropyl]-1-oxa-4,7,10,13,16-pentazacyclononadecane-2,5,8,11,14,17-hexone]	

Second part, the molecule before the results:

Compound	MIC (ATCC 700928, 22 h)	MIC (E. coli CFT073 ATCC 700928, Mueller Hinton II cation adjusted Broth with 0.002% v/v Tween-80, 35° C. for 22 hours, lowest concentration that completely prevented bacterial growth)
CCCCCCCCCC[C@H]1OC(=O)CNC(=O)[C@H]([C@H](C)O)NC(=O)[C@H](CN)NC(=O)[C@H]([C@H](C)CC)NC(=O)[C@H](CCC)N(C)C(=O)[C@@H]1C [Example 14, (6S,9S,12S,15S,18R,19R)-9-(aminomethyl)-19-decyl-6-[(1S)-1-hydroxyethyl]-16,18-dimethyl-12-[(1R)-1-methylpropyl]-15-propyl-1-oxa-4,7,10,13,16-pentazacyclononadecane-2,5,8,11,14,17-hexone]	3.1 µM (≈ 2.16 µg/mL)	
CCCCCCCCCC[C@H]1OC(=O)CNC(=O)[C@H]([C@H](C)O)NC(=O)[C@H](CN)NC(=O)[C@H]([C@H](C)CC)NC(=O)[C@H](CCC(C)C)N(C)C(=O)[C@@H]1C [Example 15, (6S,9S,12S,15S,18R,19R)-9-(aminomethyl)-19-decyl-6-[(1S)-1-hydroxyethyl]-15-isopentyl-16,18-dimethyl-12-[(1R)-1-methylpropyl]-1-oxa-4,7,10,13,16-pentazacyclononadecane-2,5,8,11,14,17-hexone]	6.3 µM (≈ 4.57 µg/mL)	
CCCCCCCCCC[C@H]1OC(=O)CNC(=O)[C@H]([C@H](C)O)NC(=O)[C@H](CN)NC(=O)[C@H]([C@H](C)CC)NC(=O)[C@H](CC2CCC2)N(C)C(=O)[C@@H]1C [Example 16, (6S,9S,12S,15S,18R,19R)-9-(aminomethyl)-15-(cyclobutylmethyl)-19-decyl-6-[(1S)-1-hydroxyethyl]-16,18-dimethyl-12-[(1R)-1-methylpropyl]-1-oxa-4,7,10,13,16-pentazacyclononadecane-2,5,8,11,14,17-hexone]	6.3 µM (≈ 4.55 µg/mL)	
CCCCCCCCCC[C@H]1OC(=O)CNC(=O)[C@H](CO)NC(=O)[C@H](CO)NC(=O)[C@H]([C@@H](C)CC)NC(=O)[C@H](CC(C)C)N(C)C(=O)[C@@H]1C [Example 18, (6S,9S,12S,15S,18R,19R)-19-decyl-6,9-bis(hydroxymethyl)-15-isobutyl-16,18-dimethyl-12-[(1S)-1-methylpropyl]-1-oxa-4,7,10,13,16-pentazacyclononadecane-2,5,8,11,14,17-hexone]		19 µM (≈ 13.3 µg/mL)
CCCCCCCCCC[C@H]1OC(=O)CNC(=O)[C@H](CN)NC(=O)[C@H](CO)NC(=O)[C@H]([C@@H](C)CC)NC(=O)[C@H](CC(C)C)N(C)C(=O)[C@@H]1C [Example 19, (6S,9S,12S,15S,18R,19R)-6-(aminomethyl)-19-decyl-9-(hydroxymethyl)-15-isobutyl-16,18-dimethyl-12-[(1S)-1-methylpropyl]-1-oxa-4,7,10,13,16-pentazacyclononadecane-2,5,8,11,14,17-hexone]	25 µM (≈ 17.4 µg/mL)	
CCCCCCCCCC[C@H]1OC(=O)CNC(=O)[C@H](C(C)(C)O)NC(=O)[C@H](CO)NC(=O)[C@H]([C@@H](C)CC)NC(=O)[C@H](CC(C)C)N(C)C(=O)[C@@H]1C [Example 21, (6S,9S,12S,15S,18R,19R)-19-decyl-9-(hydroxymethyl)-6-(1-hydroxy-1-methyl-ethyl)-15-isobutyl-16,18-dimethyl-12-[(1S)-1-methylpropyl]-1-oxa-4,7,10,13,16-pentazacyclononadecane-2,5,8,11,14,17-hexone]	50 µM (≈ 36.3 µg/mL)	
CCCCCCCCCC[C@H]1OC(=O)CNC(=O)[C@H]([C@H](C)O)NC(=O)[C@H](CO)NC(=O)[C@H]([C@@H](C)CC)NC(=O)[C@H](CC(C)C)N(C)C(=O)[C@@H]1C [Example 22, (6S,9S,12S,15S,18R,19R)-19-decyl-6-[(1S)-1-hydroxyethyl]-9-(hydroxymethyl)-15-isobutyl-16,18-dimethyl-12-[(1S)-1-methylpropyl]-1-oxa-4,7,10,13,16-pentazacyclononadecane-2,5,8,11,14,17-hexone]	13 µM (≈ 9.26 µg/mL)	
CCCCCCCCCC[C@H]1OC(=O)CNC(=O)[C@H]([C@H](C)O)NC(=O)[C@H](CN)NC(=O)[C@H]([C@@H](C)CC)NC(=O)[C@H](CC(C)C)N(C)C(=O)[C@@H]1C [Example 23, (6S,9S,12S,15S,18R,19R)-9-(aminomethyl)-19-decyl-6-[(1S)-1-hydroxyethyl]-15-isobutyl-16,18-dimethyl-12-[(1S)-1-methylpropyl]-1-oxa-4,7,10,13,16-pentazacyclononadecane-2,5,8,11,14,17-hexone]	3.1 µM (≈ 2.2 µg/mL)	
CCCCCCCCCC[C@H]1OC(=O)CNC(=O)[C@H](CC)NC(=O)[C@H](CO)NC(=O)[C@H]([C@@H](C)CC)NC(=O)[C@H](CC(C)C)N(C)C(=O)[C@@H]1C [Example 24, (6S,9S,12S,15S,18R,19R)-19-decyl-16-ethyl-9-(hydroxymethyl)-15-isobutyl-16,18-dimethyl-12-[(1S)-1-methylpropyl]-1-oxa-4,7,10,13,16-pentazacyclononadecane-2,5,8,11,14,17-hexone]	13 µM (≈ 9.05 µg/mL)	
CCCCCCCCCC[C@H]1OC(=O)CNC(=O)[C@H]([C@H](C)O)NC(=O)[C@H](CNC(=N)N)NC(=O)[C@H]([C@@H](C)CC)NC(=O)[C@H](CC(C)C)N(C)C(=O)[C@@H]1C [Example 26, 1-[[(6S,9S,12S,15S,18R,19R)-19-decyl-6-[(1S)-1-hydroxyethyl]-15-isobutyl-16,18-dimethyl-12-[(1S)-1-methylpropyl]-2,5,8,11,14,17-hexaoxo-1-oxa-4,7,10,13,16-pentazacyclononadec-9-yl]methyl]guanidine]	50 µM (≈ 37.6 µg/mL)	
CCCCCCCCCC[C@H]1OC(=O)CNC(=O)[C@H](Cc2c[nH]cn2)NC(=O)[C@H](CO)NC(=O)[C@H]([C@@H](C)CC)NC(=O)[C@H](CC(C)C)N(C)C(=O)[C@@H]1C [Example 29, (6S,9S,12S,15S,18R,19R)-19-decyl-9-(hydroxymethyl)-6-(1H-imidazol-4-ylmethyl)-15-isobutyl-16,18-dimethyl-12-[(1S)-1-methylpropyl]-1-oxa-4,7,10,13,16-pentazacyclononadecane-2,5,8,11,14,17-hexone]	13 µM (≈ 9.72 µg/mL)	
